In paper PMC10174618, “Monoterpenoid aryl hydrocarbon receptor allosteric antagonists protect against ultraviolet skin damage in female mice” (Nature Communications, 2023):

Experiments:
Test in all cases: biochemical
Design in all cases: KINOMEscan scanMAX active site-directed competition binding assay, percent of control, 468 kinases
Details in all cases: competition binding, percent of control
CAMK1 = CAMK1 (Homo sapiens, UniProt Q14012)
Method in brief: (§1)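 Single-concentration screen (100 μM S-carvone) in a competition binding panel of 468 human kinases (KINOMEscan scanMAX); results given as percent of control, hit cutoff 35%.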

EPHA4 = EPHA4 (Homo sapiens, UniProt P54764)
Method in brief: as §1

VPS34 = target: T1, VPS34 (Homo sapiens, UniProt Q8NEB9)
T1 construct: gene PIK3C3
Method in brief: as §1

SRMS = SRMS (Homo sapiens, UniProt Q9H3Y6)
Method in brief: as §1

RIPK5 = target: T2, RIPK5 (Homo sapiens, UniProt Q6XUX3)
T2 construct: gene DSTYK
Method in brief: as §1

CDKL3 = CDKL3 (Homo sapiens, UniProt Q8IVW4)
Method in brief: as §1

CTK = target: T3, CTK (Homo sapiens, UniProt P42679)
T3 construct: gene MATK
Method in brief: as §1

ZAK = target: T4, ZAK (Homo sapiens, UniProt Q9NYL2)
T4 construct: gene MAP3K20
Method in brief: as §1

IKK-alpha = target: T5, IKK-alpha (Homo sapiens, UniProt O15111)
T5 construct: gene CHUK
Method in brief: as §1

TRPM6 = TRPM6 (Homo sapiens, UniProt Q9BX84)
Method in brief: as §1

SIK = target: T6, SIK (Homo sapiens, UniProt P57059)
T6 construct: gene SIK1
Method in brief: as §1

TESK1 = TESK1 (Homo sapiens, UniProt Q15569)
Method in brief: as §1

NEK9 = NEK9 (Homo sapiens, UniProt Q8TD19)
Method in brief: as §1

SRPK3 = SRPK3 (Homo sapiens, UniProt Q9UPE1)
Method in brief: as §1

PLK3 = PLK3 (Homo sapiens, UniProt Q9H4B4)
Method in brief: as §1

EPHA8 = EPHA8 (Homo sapiens, UniProt P29322)
Method in brief: as §1

AXL = AXL (Homo sapiens, UniProt P30530)
Method in brief: as §1

[1] = target: T7, ABL1(F317I)-phosphorylated (Homo sapiens, UniProt P00519, F317I)
T7 construct: phosphorylated
Method in brief: as §1

p38-alpha = target: T8, p38-alpha (Homo sapiens, UniProt Q16539)
T8 construct: gene MAPK14
Method in brief: as §1

MAP4K4 = MAP4K4 (Homo sapiens, UniProt O95819)
Method in brief: as §1

PIP5K1A = PIP5K1A (Homo sapiens, UniProt Q99755)
Method in brief: as §1

PIP5K1C = PIP5K1C (Homo sapiens, UniProt O60331)
Method in brief: as §1

Sequence of MAP4K4 (O95819 whole entry): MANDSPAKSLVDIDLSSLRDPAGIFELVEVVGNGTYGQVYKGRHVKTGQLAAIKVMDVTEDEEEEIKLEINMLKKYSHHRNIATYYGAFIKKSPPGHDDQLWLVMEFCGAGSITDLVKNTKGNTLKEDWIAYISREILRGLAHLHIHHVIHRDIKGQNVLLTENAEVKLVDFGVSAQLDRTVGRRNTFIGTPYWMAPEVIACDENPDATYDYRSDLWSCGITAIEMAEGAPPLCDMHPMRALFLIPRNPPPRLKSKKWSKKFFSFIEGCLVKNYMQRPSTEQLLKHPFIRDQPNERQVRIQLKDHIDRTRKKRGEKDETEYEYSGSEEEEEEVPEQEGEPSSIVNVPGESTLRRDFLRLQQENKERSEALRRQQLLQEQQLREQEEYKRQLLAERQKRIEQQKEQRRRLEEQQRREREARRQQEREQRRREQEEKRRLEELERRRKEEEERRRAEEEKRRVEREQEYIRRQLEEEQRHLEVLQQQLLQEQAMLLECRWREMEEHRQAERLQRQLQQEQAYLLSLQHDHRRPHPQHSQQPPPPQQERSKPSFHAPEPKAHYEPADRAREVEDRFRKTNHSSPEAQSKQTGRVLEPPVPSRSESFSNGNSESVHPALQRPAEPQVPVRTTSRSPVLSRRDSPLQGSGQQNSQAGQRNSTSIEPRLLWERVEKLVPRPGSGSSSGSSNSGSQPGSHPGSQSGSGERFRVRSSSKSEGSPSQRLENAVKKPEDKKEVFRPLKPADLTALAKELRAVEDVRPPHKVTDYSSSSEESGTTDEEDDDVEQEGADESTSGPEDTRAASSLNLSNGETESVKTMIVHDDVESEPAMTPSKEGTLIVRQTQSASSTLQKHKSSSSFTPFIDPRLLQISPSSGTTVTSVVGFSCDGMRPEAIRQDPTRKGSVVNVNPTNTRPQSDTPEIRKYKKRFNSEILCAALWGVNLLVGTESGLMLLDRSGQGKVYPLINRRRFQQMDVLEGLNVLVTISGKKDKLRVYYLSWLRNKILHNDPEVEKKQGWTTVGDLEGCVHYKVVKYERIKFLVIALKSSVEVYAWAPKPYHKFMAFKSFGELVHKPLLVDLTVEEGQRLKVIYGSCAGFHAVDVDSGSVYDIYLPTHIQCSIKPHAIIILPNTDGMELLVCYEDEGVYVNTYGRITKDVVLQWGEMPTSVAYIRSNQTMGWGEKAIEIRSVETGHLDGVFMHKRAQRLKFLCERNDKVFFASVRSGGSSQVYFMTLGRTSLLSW
T2 sequence (Q6XUX3 whole entry): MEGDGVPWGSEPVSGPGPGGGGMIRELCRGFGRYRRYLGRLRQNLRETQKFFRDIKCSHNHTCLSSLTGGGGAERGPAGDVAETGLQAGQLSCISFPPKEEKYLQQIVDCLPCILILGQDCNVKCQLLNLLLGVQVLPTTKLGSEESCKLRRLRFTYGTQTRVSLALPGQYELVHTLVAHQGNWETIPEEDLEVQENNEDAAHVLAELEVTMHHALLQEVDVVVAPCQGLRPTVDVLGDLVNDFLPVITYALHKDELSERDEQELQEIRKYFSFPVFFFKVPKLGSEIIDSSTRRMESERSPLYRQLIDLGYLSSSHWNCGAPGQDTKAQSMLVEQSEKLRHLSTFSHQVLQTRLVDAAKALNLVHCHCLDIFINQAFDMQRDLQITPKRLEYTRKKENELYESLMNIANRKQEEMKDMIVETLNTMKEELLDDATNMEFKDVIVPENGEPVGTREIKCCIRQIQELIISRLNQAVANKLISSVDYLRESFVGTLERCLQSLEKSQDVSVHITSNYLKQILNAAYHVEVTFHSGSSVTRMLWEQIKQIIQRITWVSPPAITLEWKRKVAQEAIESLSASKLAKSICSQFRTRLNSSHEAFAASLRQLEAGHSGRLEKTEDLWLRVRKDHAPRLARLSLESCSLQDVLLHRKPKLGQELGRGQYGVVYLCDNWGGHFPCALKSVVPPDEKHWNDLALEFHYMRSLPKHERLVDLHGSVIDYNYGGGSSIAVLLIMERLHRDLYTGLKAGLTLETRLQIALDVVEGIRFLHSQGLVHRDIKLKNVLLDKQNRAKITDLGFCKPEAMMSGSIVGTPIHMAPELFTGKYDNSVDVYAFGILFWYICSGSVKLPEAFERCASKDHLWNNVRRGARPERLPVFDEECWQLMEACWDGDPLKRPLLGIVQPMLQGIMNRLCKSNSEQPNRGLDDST
Sequence of TESK1 (Q15569 whole entry): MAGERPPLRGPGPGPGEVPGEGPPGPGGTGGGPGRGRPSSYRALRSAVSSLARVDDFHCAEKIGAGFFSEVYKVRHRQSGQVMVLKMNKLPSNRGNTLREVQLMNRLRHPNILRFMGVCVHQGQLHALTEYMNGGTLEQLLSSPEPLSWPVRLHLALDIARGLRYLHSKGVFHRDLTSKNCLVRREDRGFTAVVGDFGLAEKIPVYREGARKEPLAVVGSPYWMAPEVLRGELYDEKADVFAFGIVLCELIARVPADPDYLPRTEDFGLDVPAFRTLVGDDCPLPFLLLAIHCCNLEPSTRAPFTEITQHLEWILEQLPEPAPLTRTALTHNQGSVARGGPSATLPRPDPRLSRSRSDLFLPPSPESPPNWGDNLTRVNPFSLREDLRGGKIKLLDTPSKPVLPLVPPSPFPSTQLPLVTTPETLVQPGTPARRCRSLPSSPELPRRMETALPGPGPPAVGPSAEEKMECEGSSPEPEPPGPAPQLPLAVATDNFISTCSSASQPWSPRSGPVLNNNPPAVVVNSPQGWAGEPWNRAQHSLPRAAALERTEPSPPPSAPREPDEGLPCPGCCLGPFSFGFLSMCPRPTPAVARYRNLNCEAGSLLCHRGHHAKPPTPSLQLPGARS
Sequence of PIP5K1C (O60331 whole entry): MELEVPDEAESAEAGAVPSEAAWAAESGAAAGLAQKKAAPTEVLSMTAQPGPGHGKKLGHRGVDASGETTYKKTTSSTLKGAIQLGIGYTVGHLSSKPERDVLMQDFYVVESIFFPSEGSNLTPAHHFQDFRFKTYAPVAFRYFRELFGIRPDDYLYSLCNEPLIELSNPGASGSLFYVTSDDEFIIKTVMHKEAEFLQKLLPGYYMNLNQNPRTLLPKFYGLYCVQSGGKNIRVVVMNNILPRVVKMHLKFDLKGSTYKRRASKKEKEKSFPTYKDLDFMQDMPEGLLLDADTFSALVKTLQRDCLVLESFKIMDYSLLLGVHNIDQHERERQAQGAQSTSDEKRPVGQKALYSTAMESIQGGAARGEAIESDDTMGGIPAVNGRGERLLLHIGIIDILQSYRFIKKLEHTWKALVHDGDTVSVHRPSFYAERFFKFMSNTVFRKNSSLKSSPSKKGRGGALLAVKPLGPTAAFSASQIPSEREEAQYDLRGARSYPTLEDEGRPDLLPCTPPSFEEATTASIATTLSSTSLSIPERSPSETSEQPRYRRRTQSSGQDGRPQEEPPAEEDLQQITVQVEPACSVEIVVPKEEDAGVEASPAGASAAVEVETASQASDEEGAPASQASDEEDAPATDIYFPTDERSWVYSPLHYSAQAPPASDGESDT
Sequence of PIP5K1A (Q99755 whole entry): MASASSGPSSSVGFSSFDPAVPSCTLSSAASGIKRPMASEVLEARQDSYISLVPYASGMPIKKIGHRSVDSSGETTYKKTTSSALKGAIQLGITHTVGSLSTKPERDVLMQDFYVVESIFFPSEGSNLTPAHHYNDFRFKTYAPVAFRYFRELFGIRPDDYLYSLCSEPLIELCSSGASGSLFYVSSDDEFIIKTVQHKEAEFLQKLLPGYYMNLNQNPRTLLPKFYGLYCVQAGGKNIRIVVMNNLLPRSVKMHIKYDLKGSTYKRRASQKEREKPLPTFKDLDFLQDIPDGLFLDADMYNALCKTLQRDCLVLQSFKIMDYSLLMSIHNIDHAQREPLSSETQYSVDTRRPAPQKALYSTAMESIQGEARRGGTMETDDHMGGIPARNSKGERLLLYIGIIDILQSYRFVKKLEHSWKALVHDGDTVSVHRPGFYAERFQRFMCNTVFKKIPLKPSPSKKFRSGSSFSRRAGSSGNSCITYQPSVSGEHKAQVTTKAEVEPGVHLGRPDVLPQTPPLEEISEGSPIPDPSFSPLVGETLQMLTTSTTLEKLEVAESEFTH
Sequence of EPHA4 (P54764 whole entry): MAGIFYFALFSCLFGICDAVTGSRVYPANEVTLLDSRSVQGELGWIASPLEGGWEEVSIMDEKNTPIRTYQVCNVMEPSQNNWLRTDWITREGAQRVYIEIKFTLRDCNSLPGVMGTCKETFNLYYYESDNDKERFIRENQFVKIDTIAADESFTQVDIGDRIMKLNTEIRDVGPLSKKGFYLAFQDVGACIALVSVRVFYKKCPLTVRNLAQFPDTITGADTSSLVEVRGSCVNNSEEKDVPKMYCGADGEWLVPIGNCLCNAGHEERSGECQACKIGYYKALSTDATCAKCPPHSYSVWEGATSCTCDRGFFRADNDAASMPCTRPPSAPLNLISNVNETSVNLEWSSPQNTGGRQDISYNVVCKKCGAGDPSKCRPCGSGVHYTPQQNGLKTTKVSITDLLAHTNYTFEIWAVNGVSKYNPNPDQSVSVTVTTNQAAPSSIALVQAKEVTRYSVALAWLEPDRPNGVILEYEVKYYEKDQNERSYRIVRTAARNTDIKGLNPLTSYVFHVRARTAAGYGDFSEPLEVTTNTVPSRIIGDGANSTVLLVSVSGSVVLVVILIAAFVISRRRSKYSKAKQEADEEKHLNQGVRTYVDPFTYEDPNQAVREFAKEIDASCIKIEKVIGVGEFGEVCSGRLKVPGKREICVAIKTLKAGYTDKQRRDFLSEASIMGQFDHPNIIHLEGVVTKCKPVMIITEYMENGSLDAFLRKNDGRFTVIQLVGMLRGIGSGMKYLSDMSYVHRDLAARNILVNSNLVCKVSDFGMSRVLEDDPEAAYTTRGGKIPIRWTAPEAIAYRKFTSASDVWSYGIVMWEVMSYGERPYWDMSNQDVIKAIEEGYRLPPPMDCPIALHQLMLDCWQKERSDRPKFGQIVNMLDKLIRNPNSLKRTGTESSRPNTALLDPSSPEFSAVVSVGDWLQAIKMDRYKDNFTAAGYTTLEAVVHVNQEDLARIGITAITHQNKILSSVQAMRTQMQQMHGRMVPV

remaining binding at 100 µM (CAMK1): 75% | remaining binding at 100 µM (EPHA4): 84% | remaining binding at 100 µM (VPS34): 64% | remaining binding at 100 µM (SRMS): 76% | remaining binding at 100 µM (RIPK5): 61% | remaining binding at 100 µM (CDKL3): 89% | remaining binding at 100 µM (CTK): 75% | remaining binding at 100 µM (ZAK): 72% | remaining binding at 100 µM (IKK-alpha): 72% | remaining binding at 100 µM (TRPM6): 87% | remaining binding at 100 µM (SIK): 67% | remaining binding at 100 µM (TESK1): 79% | remaining binding at 100 µM (SRPK3): 61% | remaining binding at 100 µM (PLK3): 69% | remaining binding at 100 µM (EPHA8): 91% | remaining binding at 100 µM (AXL): 82% | remaining binding at 100 µM [1]: 97% | remaining binding at 100 µM (p38-alpha): 100% | remaining binding at 100 µM (MAP4K4): 85% | remaining binding at 100 µM (PIP5K1A): 98% | remaining binding at 100 µM (PIP5K1C): 100%
Structure (SMILES): C=C(C)[C@H]1CC=C(C)C(=O)C1 [S-carvone]
remaining binding at 100 µM (NEK9): 80%
